How the values were obtained:
[1] = test system: SH-SY5Y neuroblastoma cells; type: cell-based, human; conditions: 24 h, Aβ oligomers 10 µM alone, mean ± SEM, N = 4–8
Method: Real-time cell impedance measurement assay (xCELLigence) was utilized to test the effects of Aβ and the protective effect of the compounds 1, 3–5 on SH-SY5Y neuroblastoma cells. Cells were treated with Aβ oligomers in the concentration of 10 µM either alone or together with compounds 1, 3–5, which were applied in two different concentrations (5 or 10 μM). The cell index was monitored continuously for 48 h. Figure 6 represents the viability readouts after 24 h and 48 h (Table S3). Aβ caused a significant reduction in the viability after 24 h (red column, 85.1 ± 2.6% of control) reflecting the effects of an elongated treatment. […]
Figure 6 Cell viability readouts based on impedance analysis after treatments at different time points: (A) 24 h (B) 48 h. […]
Differentiated SH-SY5Y cells were grown in Dulbecco’s Modified Eagle’s Medium (DMEM) and F12-Ham’s culture medium at a 1:1 ratio supplemented with 10% (v/v) fetal bovine serum (FBS), 1% (v/v) L-glutamine, and 50 µg/mL gentamicin. […] Cells were cultured for 5–7 days and monitored every 15 min until the end of experiments. […] The resulting data was analyzed using real-time cell analyzer software (RTCA, Roche, Basel, Switzerland) and exported to Excel.

acute hippocampal slices = assay: Ex vivo MTT tissue viability test on acute hippocampal slices treated with Aβ oligomers after oxygen-glucose deprivation; type: cell-based, Wistar rats; conditions: 4 h, Aβ oligomers 10 µM alone, untreated slices as control, mean ± SD, N = 4
Excerpt: We have applied a rapid, reliable assay, which utilizes acute hippocampal slices for MTT measurements to test the short-term effect of toxic Aβ oligomers on the viability of the surviving cells in the tissue. Acute hippocampal brain slices can be maintained ex vivo only for a few hours, thus excluding the possibility of studying the long-term effects of neuroprotective compounds. Still, the combination of oxygen-glucose deprivation and treatment with Aβ oligomers makes this assay applicable on a short-term basis, which is otherwise impossible with convenient in vitro methods. The Aβ treatment combined with this short and mild oxygen-glucose deprivation provided a relevant ex vivo model for the aging brain and a standard MTT assay was used for the quantification of toxicity (Table S2). Treatment with Aβ oligomers in 10 µM concentration caused a significant decrease in tissue viability after 4 h (Figure 5, white column, 43.2 ± 1.6% of control). To test the neuroprotective effects of the compounds, slices were treated with Aβ in the presence of equimolar amounts of 1, 3–6, respectively. […]
Toxicity measurements were carried out using freshly prepared slices (N = 2 × 10 for one case) of the brains of 10 ± 1-week-old Wistar rats (4 animals, thickness of the brain slices: 400 µm). […] After the treatment, brain slice viability was measured using a specific MTT assay. […]

With “Aβ oligomers: oligomers of amyloid β (1–42) prepared from Ser26 depsipeptide iso-Aβ (1–42)” the “viability, Aβ alone” value [1] was 85.1 ± 2.6 % of control and the “tissue viability, Aβ oligomers alone” value (acute hippocampal slices) was 43.2 ± 1.6 % of control.

From PMC6222781, “Structural Optimization of Foldamer-Dendrimer Conjugates as Multivalent Agents against the Toxic Effects of Amyloid Beta Oligomers” (Molecules : A Journal of Synthetic Chemistry and Natural …, 2018)
